Laboratory results: publication PMC6271006, “Monoamine Oxidase Inhibitory Constituents of Propolis: Kinetics and Mechanism of Inhibition of Recombinant Human MAO-A and MAO-B” (Molecules, 2014)
Where two headings read alike, the source gives them in different places.

How the values were obtained:
recombinant human MAO-A [1] = biological target: T1, recombinant human MAO-A (Homo sapiens, UniProt P21397); test: MAO-A inhibition, kynuramine deamination assay (IC50); format: biochemical; conditions: for IC50: pure compounds, 80 μM kynuramine, mean ± S.D. of triplicate, read-out: Monoamine Oxidase-A (IC50)
T1 construct: purchased BD Biosciences (Bedford, MA, USA)
T1 sequence (P21397 1-527): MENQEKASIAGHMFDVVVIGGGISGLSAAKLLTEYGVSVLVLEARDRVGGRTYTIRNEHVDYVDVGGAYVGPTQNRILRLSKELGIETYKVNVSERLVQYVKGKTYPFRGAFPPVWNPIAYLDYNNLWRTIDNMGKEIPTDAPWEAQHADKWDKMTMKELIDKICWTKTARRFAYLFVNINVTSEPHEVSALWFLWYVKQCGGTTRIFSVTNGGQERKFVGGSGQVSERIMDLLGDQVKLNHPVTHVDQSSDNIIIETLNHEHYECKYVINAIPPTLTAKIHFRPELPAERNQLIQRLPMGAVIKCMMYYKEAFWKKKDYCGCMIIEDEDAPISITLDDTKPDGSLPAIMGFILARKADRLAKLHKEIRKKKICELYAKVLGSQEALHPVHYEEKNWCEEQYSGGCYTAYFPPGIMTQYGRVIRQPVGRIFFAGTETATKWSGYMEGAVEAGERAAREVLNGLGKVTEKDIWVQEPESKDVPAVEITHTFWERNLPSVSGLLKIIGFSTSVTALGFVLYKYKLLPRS
Description: (§1) To investigate the effect of the selected constituents on MAO-A and MAO-B, the kynuramine deamination assay was adapted for 96-well plates as described earlier. […] For MAO-A, the substrate concentration of 80 μM kynuramine was chosen because the apparent KM value for substrate binding reported previously was approximately 40 μM [48]. […] Similarly, for MAO-B, substrate concentration of 50 μM kynuramine was chosen. The assay was performed with the addition of inhibitor. Inhibition was calculated as percent of product formation compared to the corresponding control (enzyme-substrate reaction) without the inhibitors. The reactions were carried out in 0.1 M potassium phosphate buffer at pH 7.4. Incubations mixtures contained 5 μg/mL of MAO-A (50 μL in buffer) and 10 μg/mL of MAO-B (50 μL in buffer). The inhibitor was dissolved in DMSO or in buffer (if not dissolved in DMSO). The total reaction volume was 200 μL yielding a final DMSO concentration of 1.0% in the reaction mixture. The reaction mixtures were pre-incubated for 10 min at 37 °C followed by the addition of MAO-A/MAO-B to initiate the reactions. Reactions were incubated for 20 min at 37 °C and were stopped immediately by the addition of 75 μL of 2N NaOH. The formation of 4-hydroxyquinoline was determined fluorometrically by SpectraMax M5 fluorescence plate reader (Molecular Devices, Sunnyvale, CA, USA) with an excitation and emission wavelength of 320 nm and 380 nm, respectively, using the Soft Max Pro program. Appropriate controls with the test compounds, fractions and extracts, where the enzyme or the substrate was added after stopping the reaction were setup simultaneously to check interference with the fluorescence measurements.
(§2) IC50 values for inhibition of MAO-A and B by the selected constituents were determined using fixed concentration of substrate and varying concentration of the inhibitor.

recombinant human MAO-B [2] = biological target: T2, recombinant human MAO-B (Homo sapiens, UniProt P27338); test: MAO-B inhibition, kynuramine deamination assay (IC50); format: biochemical; conditions: pure compounds; 50 μM kynuramine; mean ± S.D. of triplicate; read-out: Monoamine Oxidase-B (IC50)
T2 construct: purchased BD Biosciences (Bedford, MA, USA)
T2 sequence (P27338 1-520): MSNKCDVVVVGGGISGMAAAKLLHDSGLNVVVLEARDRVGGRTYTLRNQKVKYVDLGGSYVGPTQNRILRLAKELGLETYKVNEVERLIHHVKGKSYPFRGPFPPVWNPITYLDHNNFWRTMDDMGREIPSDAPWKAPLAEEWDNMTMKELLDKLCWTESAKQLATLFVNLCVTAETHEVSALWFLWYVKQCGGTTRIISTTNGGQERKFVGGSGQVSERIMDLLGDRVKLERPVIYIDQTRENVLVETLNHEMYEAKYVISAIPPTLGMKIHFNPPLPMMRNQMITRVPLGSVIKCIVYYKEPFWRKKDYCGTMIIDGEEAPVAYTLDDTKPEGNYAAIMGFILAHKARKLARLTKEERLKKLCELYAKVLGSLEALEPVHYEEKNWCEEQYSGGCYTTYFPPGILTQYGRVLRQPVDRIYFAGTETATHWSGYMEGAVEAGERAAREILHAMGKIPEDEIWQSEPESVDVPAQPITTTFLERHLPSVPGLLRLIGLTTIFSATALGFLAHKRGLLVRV
Description: as §1, §2

recombinant human MAO-A [3] = biological target: T1, recombinant human MAO-A; test: Enzyme kinetics / inhibition mechanism, MAO-A (Ki, Lineweaver-Burk); format: biochemical; conditions: for Ki: kynuramine 1.90-500 μM, SigmaPlot enzyme module, mean ± S.D. of triplicate experiments, read-out: Monoamine Oxidase-A Ki
Description: (§3) Based on dose-response inhibition, two concentrations of the inhibitors were selected, one below and another above IC50 value for the inhibition. For each experiment, three sets of assays were done at varying concentrations of the substrate, one control without inhibitors and with two concentrations of the inhibitor.
(§4) Controls without inhibitor were also run simultaneously.

recombinant human MAO-B [4] = biological target: T2, recombinant human MAO-B; test: Enzyme kinetics / inhibition mechanism, MAO-B (Ki, Lineweaver-Burk); format: biochemical
Description: as §3, §4

recombinant human MAO-A [5] = biological target: T1, recombinant human MAO-A; test: Time-dependent enzyme inhibition, MAO-A; format: biochemical; conditions: pre-incubation 0-15 min; galangin 0.25 μM, apigenin 1.2 μM
Description: (§5) The controls without inhibitors were also run simultaneously. Activities of the enzymes were determined as described above and percentage of enzyme activity remaining was plotted against the preincubation time to determine time-dependent inhibition.
(§6) The controls without inhibitors were also run simultaneously. Activities of the enzymes were determined as described above and percentage of enzyme activity remaining was plotted against the preincubation time to determine time-dependent enzyme-inhibition.

recombinant human MAO-B [6] = biological target: T2, recombinant human MAO-B; test: Time-dependent enzyme inhibition, MAO-B; format: biochemical; conditions: pre-incubation 0-15 min; galangin 14.0 μM, apigenin 4.0 μM
Description: as §5, §6

recombinant human MAO-A [7] = biological target: T1, recombinant human MAO-A; test: Reversibility of binding by enzyme-inhibitor complex dissociation dialysis, MAO-A; format: biochemical; conditions: for MAO-A activity recovered after dialysis: overnight dialysis; for Nature of binding with MAO-A: dialysis dissociation
Description: (§7) The characteristic binding of these inhibitors was also investigated by the enzyme-inhibitor complex dissociation by dialysis. High concentrations of the inhibitors were allowed to interact with the enzyme (MAO-A or B) for 20 min and the resulting enzyme-inhibitor complex mixtures were dialyzed overnight against buffer solutions. The catalytic activities of the enzymes were analyzed before and after the dialysis. The recombinant human MAO-A lost about 30% of the enzyme activity during overnight dialysis. […] After the dialysis about 70% and 80% activity of the enzyme was recovered from enzyme-galangin and enzyme-apigenin incubation mixtures. This observation indicated reversal of the enzyme activity due to formation of dissociable enzyme-inhibitor complex. […] The recombinant MAO-B lost about 30% of the enzyme activity during overnight dialysis.
(§8) Most of the inhibitors produce inhibition of the target enzyme through formation of an enzyme-inhibitor complex. Formation of the enzyme-inhibitor complex may be accelerated in presence of high concentration of the inhibitor. […] After 20 min incubation at 37 °C, the reaction was stopped by chilling the tubes on the ice bath. All the samples were dialyzed against potassium phosphate buffer (25 mM; pH 7.4) at 4 °C for 14 h (three buffer changes). Control enzyme (without inhibitor) was also run through the same procedure and activity of the enzyme was determined before and after the dialysis. Recovery of the catalytic activity enzyme after extensive dialysis of the enzyme-inhibitor mix provided the information about reversibility/irreversibility of binding of the inhibitor with the enzyme.

recombinant human MAO-B [8] = biological target: T2, recombinant human MAO-B; test: Reversibility of binding by enzyme-inhibitor complex dissociation dialysis, MAO-B; format: biochemical; conditions: for MAO-B activity recovery after dialysis: overnight dialysis
Description: as §7, §8

total MAO (A & B) = tested on: total MAO (A & B); parameters: method as in not given; conditions: mouse brain crude mitochondrial preparation; earlier study, ref not given; read-out: IC50 for inhibition of total MAO (A & B); cited from earlier work
MAO-A = tested on: MAO-A; parameters: method as in not given; conditions: mouse brain crude mitochondrial preparation, iso-enzyme specific substrates; earlier study, ref not given; cited from earlier work

O=C1c2c(O)cc(O)cc2OC(c2ccc(O)c(O)c2)C1O (stereo not shown) [Toxifolin, taxifolin]
IC50 (recombinant human MAO-A [1]): 65100 ± 1960 nM | IC50 (recombinant human MAO-B [2]): 53.8 ± 3.91 µM

COc1ccc2c(c1)[nH]c1c(C)nccc12 [Harmine, reference compound]
IC50 (recombinant human MAO-B [2]): 27.5 ± 2.67 µM | Monoamine Oxidase-A Type of Inhibition (recombinant human MAO-A [3]): Competitive/Reversible

O=c1c(O)c(-c2ccc(O)c(O)c2)oc2cc(O)cc(O)c12 [Quercetin, quercetin]
Selectivity for MAO-A vs. MAO-B (recombinant human MAO-A [1]): 15 fold | IC50 (recombinant human MAO-A [1]): 2440 ± 120 nM | IC50 (recombinant human MAO-B [2]): 38.7 ± 1.2 µM

O=c1c(O)c(-c2ccc(O)cc2O)oc2cc(O)cc(O)c12 [Morin hydrate, morin]
Selectivity for MAO-A vs. MAO-B (recombinant human MAO-A [1]; MAO-A over MAO-B): 9 fold | IC50 (recombinant human MAO-A [1]): 5880 ± 150 nM | IC50 (recombinant human MAO-B [2]): 49.7 ± 0.56 µM

O=c1c(O)c(-c2ccccc2)oc2cc(O)cc(O)c12 [Galangin, galangin]
IC50 (recombinant human MAO-A [1]): 130 ± 10 nM | Monoamine Oxidase-A Type of Inhibition (recombinant human MAO-A [3]): Competitive/Reversible | Ki (recombinant human MAO-A [3]): 29 ± 4 nM | Monoamine Oxidase-A Type of Inhibition (recombinant human MAO-A [3]; listed as galangin): competitive | Monoamine Oxidase-B Type of Inhibition (recombinant human MAO-B [4]): Competitive/Reversible | Monoamine Oxidase-B Type of Inhibition (recombinant human MAO-B [4]; listed as galangin): competitive | Time-dependence of binding/inhibition of MAO-A (recombinant human MAO-A [5]): not dependent on pre-incubation time | Time-dependence of binding/inhibition of MAO-B (recombinant human MAO-B [6]): not dependent on pre-incubation time | inhibition at 10 µM (recombinant human MAO-A [7]; 10.0 μM inhibitor, 20 min incubation, read-out: Inhibition of catalytic activity of MAO-A before dialysis): > 97% | MAO-A activity recovered after dialysis (recombinant human MAO-A [7]; 10.0 μM inhibitor): about 70% | Nature of binding with MAO-A (recombinant human MAO-A [7]): reversible | Inhibition of MAO-B enzyme activity before dialysis (recombinant human MAO-B [8]; 50.0 μM inhibitor, 20 min incubation): ~58.3 | MAO-B activity recovery after dialysis (recombinant human MAO-B [8]; 50.0 μM inhibitor): almost completely recovered

O=c1cc(-c2ccc(O)cc2)oc2cc(O)cc(O)c12 [Apigenin, apigenin]
IC50 (recombinant human MAO-A [1]): 640 ± 110 nM | IC50 (recombinant human MAO-B [2]): 1.12 ± 0.27 µM | Monoamine Oxidase-A Type of Inhibition (recombinant human MAO-A [3]): Competitive/Reversible | Ki (recombinant human MAO-A [3]): 125 ± 14 nM | Monoamine Oxidase-A Type of Inhibition (recombinant human MAO-A [3]; listed as apigenin): competitive | Monoamine Oxidase-B Type of Inhibition (recombinant human MAO-B [4]): Competitive/Reversible | Ki (recombinant human MAO-B [4]; kynuramine 1.90-500 μM, SigmaPlot enzyme module, mean ± S.D. of triplicate experiments, read-out: Monoamine Oxidase-B Ki): 238 ± 24 nM | Monoamine Oxidase-B Type of Inhibition (recombinant human MAO-B [4]; listed as apigenin): competitive | Time-dependence of binding/inhibition of MAO-A (recombinant human MAO-A [5]): not dependent on pre-incubation time | Time-dependence of binding/inhibition of MAO-B (recombinant human MAO-B [6]): not dependent on pre-incubation time | inhibition at 20 µM (recombinant human MAO-A [7]; 20.0 μM inhibitor, 20 min incubation, read-out: Inhibition of catalytic activity of MAO-A before dialysis): > 88% | MAO-A activity recovered after dialysis (recombinant human MAO-A [7]; 20.0 μM inhibitor): ~80% | Nature of binding with MAO-A (recombinant human MAO-A [7]): reversible | inhibition at 25 µM (recombinant human MAO-B [8]; 25.0 μM inhibitor, 20 min incubation, read-out: Inhibition of catalytic activity of MAO-B before dialysis): ~90% | MAO-B activity recovery after dialysis (recombinant human MAO-B [8]; 25.0 μM inhibitor): almost fully recovered | IC50 (total MAO (A & B)): 1000 nM | Potency of MAO-A inhibition relative to MAO-B (MAO-A): about 7.5 fold

O=c1c(O)c(-c2ccc(O)c(O)c2)oc2cc(O)ccc12 [Fisetin hydrate, fisetin]
Selectivity for MAO-A vs. MAO-B (recombinant human MAO-A [1]; MAO-A over MAO-B): > 47 fold | IC50 (recombinant human MAO-A [1]): 2100 ± 90 nM | IC50 (recombinant human MAO-B [2]): > 100 µM
